The subject of test [1] is nitric oxide (NO) release. Nature of the test: NO release from formula feeds with nitrite and NADH (Test 7). In kind it is biochemical. As to conditions: inhibitor 100 μM. As for the experimental part:
(§1) The production of nitric oxide in the following tests and examples was analysed using an ozone chemiluminescence assay in a continuous flow apparatus (Sievers NOA 280) that allows the real time analysis of NO production. The apparatus was modified to allow a constant stream of nitrogen to flow into the reaction chamber. Chemiluminescence data were collected by a data acquisition system; the mean NO produced in parts per billion (ppb) was calculated from readings taken every second and shown as ppb or mV.
(§2) Progress curves, of molar production of NO against time, were calculated by taking into account the gas flow and the mean level of NO. Molar production of NO was expressed as ppb/sec or mV/sec. Reactions were carried out in a final volume of 1 ml at 37° C. in an atmosphere of <1% oxygen (Stathkelvin combination needle oxygen electrode, Diamond General Corp.).
(§3) To the “substrates” bijou, 200 μl of 100 mM stock sodium nitrite was added together with 200 μl of the 5 mM reduced NADH to give an assay concentration of 20 mM nitrite and 1 mM reduced NADH.
(§4) To the “milk” bijou were added 600 μl of milk sample to give an assay volume of 1 ml.
(f) At t=5 minutes, the contents of the “milk” bijou were injected into the reaction cell using a 1 ml syringe and the release of NO was monitored for a further 20 minutes. […]

Test [2] relates to nitric oxide (NO) release. The test can be described thus: NO release from full fat milk with nitrite and NADH under hypoxia (Test 5). As to conditions: inhibitor 100 μM; for inhibition of the increased NO release of milk gone off at 4° C.: milk kept at 4° C. more than 3 days. The format is biochemical. As to the method:
as §1, §2, §3, §4
(f) At t=5 minutes, the contents of the “milk” bijou were injected into the reaction cell using a 1 ml syringe and the release of NO was monitored for a further 20 minutes. The set up was such that the reaction cell was a sealed system having an inlet gas flow of 200 ml/min and a sample extraction flow to the NOA-280 of 200 ml/min. The steady-state generation of NO (which corresponded to a plateau region on the trace of the NO production) was noted to give the mV/s release of NO from the 1 ml assay volume.
Full fat milk was assayed with 20 mM nitrite and 1 mM NADH as described above in Test 1. […] 600 μl of milk was used in each test giving a protein content in each assay of 20.4 mg.
The milk was taken and divided into two halves. One was kept at 4° C., and the other at −20° C. Samples of the milk were taken over several days and the generation of NO was investigated using the method described above.

The target in test [3] is T1, bovine xanthine oxidase (XOR) (Bos taurus, UniProt P80457).
T1 construct: purchased Biozyme, Blaenavon, UK batch 104AX
T1 sequence (P80457 whole entry): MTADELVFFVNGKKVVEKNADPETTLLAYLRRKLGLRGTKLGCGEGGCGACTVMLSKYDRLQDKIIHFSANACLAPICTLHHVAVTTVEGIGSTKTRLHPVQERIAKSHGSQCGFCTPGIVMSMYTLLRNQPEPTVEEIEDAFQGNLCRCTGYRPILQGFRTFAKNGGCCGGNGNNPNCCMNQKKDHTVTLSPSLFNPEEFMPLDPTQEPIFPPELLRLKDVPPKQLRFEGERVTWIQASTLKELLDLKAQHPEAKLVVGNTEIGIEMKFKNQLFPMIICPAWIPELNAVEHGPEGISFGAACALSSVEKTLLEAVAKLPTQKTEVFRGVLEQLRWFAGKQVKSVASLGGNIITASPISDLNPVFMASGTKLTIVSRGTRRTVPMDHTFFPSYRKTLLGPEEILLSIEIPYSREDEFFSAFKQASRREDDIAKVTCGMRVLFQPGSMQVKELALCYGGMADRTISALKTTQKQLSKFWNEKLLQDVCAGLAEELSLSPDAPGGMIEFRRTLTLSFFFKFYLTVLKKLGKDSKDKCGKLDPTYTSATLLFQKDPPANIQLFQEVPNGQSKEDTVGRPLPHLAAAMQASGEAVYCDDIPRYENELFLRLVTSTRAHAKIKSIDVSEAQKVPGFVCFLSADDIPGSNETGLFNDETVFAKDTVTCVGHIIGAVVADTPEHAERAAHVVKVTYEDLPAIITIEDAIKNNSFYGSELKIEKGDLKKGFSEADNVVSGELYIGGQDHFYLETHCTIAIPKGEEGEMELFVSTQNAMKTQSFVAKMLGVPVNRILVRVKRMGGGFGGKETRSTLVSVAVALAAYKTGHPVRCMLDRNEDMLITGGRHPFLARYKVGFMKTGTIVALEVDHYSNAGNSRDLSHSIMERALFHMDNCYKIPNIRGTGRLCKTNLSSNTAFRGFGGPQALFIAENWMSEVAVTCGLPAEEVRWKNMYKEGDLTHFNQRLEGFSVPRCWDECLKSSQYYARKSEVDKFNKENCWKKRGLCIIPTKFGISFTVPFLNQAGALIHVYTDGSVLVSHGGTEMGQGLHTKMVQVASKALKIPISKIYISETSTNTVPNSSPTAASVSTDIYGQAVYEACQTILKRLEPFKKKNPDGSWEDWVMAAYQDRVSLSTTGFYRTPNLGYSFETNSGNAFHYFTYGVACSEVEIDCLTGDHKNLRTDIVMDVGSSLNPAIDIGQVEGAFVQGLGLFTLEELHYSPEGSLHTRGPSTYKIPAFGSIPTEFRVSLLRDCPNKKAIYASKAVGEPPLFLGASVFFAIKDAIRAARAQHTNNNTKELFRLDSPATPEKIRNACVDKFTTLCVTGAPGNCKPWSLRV
Nature of the test: NO release by XOR with known XOR inhibitors (Test 4). In kind it is biochemical. As to conditions: inhibitor 100 μM in the XOR/nitrite/NADH assay of Test 1. As to the method:
Bovine xanthine oxidase was diluted with PBS as indicated in Table 1 below to give 300 μl of enzyme mixture. The enzyme mixture (300 μl) was mixed with 700 μl of a substrate mixture to give an assay volume of 1 ml. The substrate mixture comprised nitrite which was added to the assay to give a concentration of 1 mM and NADH which was added to give a concentration of 0.3 mM. Where, for example in Tests 2 to 4 below, additional components are added to the sample, the amount of PBS is adjusted accordingly to give an assay volume of 1 ml. The sample was placed in the reaction vessel of the NO determination apparatus under a nitrogen atmosphere and the generation of NO was measured and the results calculated as a steady state rate in mV/s. […] Two different inhibitors were used. Oxypurinol was used at a concentration of 100 μM. Oxypurinol is a molybdenum site-specific inhibitor. Diphenyliodonium (DPI) was used at a concentration of 100 μM. DPI is a FAD site inhibitor.

Test [4] concerns Staphylococcus aureus 6751. The test can be described thus: Bacterial growth rate by optical density, 96 well plate (Tests 8(f), 8(g)). The format is cell-based. As for the experimental part:
(§5) Bacteria were seeded into nutrient broth (NB) and grown over night at 37° C. The culture was then counted and normalised to give a final cell concentration of 1.8×10^7 cells well^−1 into the wells of a 96 well plate in fresh nutrient broth. The optical density of each well was monitored every 15 minutes as a measure of the growth rate of each bacterial species. Growth curves were generated for each species and the maximal rate of growth (logarithmic phase) was measured. Cells were treated to a range of experimental conditions in which the growth rate of cells was related to a control of untreated cells. The results were expressed as a percentage of the growth rate of the control cells.
(§6) (i) At a fixed concentration of hypoxanthine (100 μM) a range of purified XO protein concentrations were added at time 0 minutes. The optical density was followed and the growth rate calculated.
(§7) (ii) The growth rate was also measured in relation to the concentration of hypoxanthine, using 30 μg of XO with cells seeded as described above.
(§8) (iv) The effect of XO hypoxanthine addition was measured on the growth rate of a range of bacterial species with 30 […] XO at varying hypoxanthine concentrations using cells seeded as described above.

For test [5], the system named is Lactobacillus casei 6375. The description is as above. In kind it is cell-based. As to the method: as §5, §6, §7, §8
Test [6] relates to Bacillus sp. As to conditions: read-out: Half maximal concentration H2O2, bolus at beginning of logarithmic growth. As to the method: as §5, §8
The subject of test [7] is Micrococcus sp. As to conditions: read-out: Half maximal concentration H2O2, bolus at beginning of logarithmic growth. As to the method: as §5, §8
The test system of test [8] is bacteria in pasteurised semi skimmed milk. As to conditions: 100 μM in pasteurised semi skimmed milk, 4-8° C., 8 days. As to the method: Pasteurised semi skimmed milk 1 ml was aliquoted into 7 sterile plastic bijou bottles comprising control and treated hypoxanthine (Hxan) groups. […] The samples were stored refrigerated at 4-8° C. until required on a specific day when a control and treated sample was incubated at 37° C. for 30 minutes. A 100 μl aliquot was taken from each sample and spread onto nutrient agar which was then incubated over night at 37° C. The total number of colonies formed regardless of type was counted and expressed for each treatment as the colony forming units per ml of the original test sample (CFU ml^−1).

Test [9] concerns Escherichia coli NCTC 86. Nature of the test: Peroxynitrite effect on cell viability, viable colony count (Test 8(a)). As to conditions: E. coli; for pIC50: Escherichia coli, NCTC86. The format is cell-based. As to the method: To obtain cells used in this test, the infective bacterial strain Escherichia coli NCTC 86 (E. coli) was cultured on nutrient agar at 37° until colony formation occurred, usually overnight. This stock culture was used for subsequent experiments including sub-culturing in nutrient broth and plated onto agar weekly. Experimental cultures of E. coli were set up overnight in nutrient broth from single colonies on an agar plate. Cells were harvested and counted using a standard curve of known absorbance at 470 nm against viable cell count. Peroxynitrite was generated by the method of Crow et al, Biochem. 34, p. 3544-3552 (1995). […] The concentration of ONOO^− formed was measured using an absorption coefficient of 1670 M^−1 cm^−1 in a spectrophotometer at a wavelength of 303 nm. Solutions of different concentrations for use in (a) below were obtained by dilution of the product solution using PBS. Cells cultured as described above were diluted to suitable working concentrations (10^4-10^5 Cells Ml^−1) in sterile phosphate buffered saline (PBS). ONOO^− at a range of concentrations from […] to 0.01 μm was added as a bolus dose to cells and incubated at room temperature for ten minutes. Aliquots were taken from the cell cultures and plated on to nutrient agar and incubated in a warm room at 37° C. overnight. Viable cells formed colonies on the agar and were counted. The number of colonies formed was related to an untreated control and a graph of the results is shown in FIG. 1, which illustrates the effect of ONOO^− on cell viability.

In test [10] the test system is contaminants of semi-skimmed bovine milk (postulated Lactobacilli sp.). The test can be described thus: Peroxynitrite addition to semi-skimmed bovine milk, colony forming units (Test 8(b)). The format is cell-based. As to conditions: 4° C., four days. As for the experimental part: Commercially produced bovine milk was purchased in semi-skimmed form. Aliquots were taken on day one of experimentation and plated onto nutrient agar and grown overnight at 37° C. The number of colonies formed following incubation was counted. The remaining milk was divided into three portions after removal of those aliquots. No peroxynitrite was added to the first portion, which was the control. A single bolus dose of 100 μM ONOO^− was added to the second portion on day one, and the third portion was treated by addition of a daily bolus dose of 100 μM ONOO^−. The portions were stored during the four days of the test at a temperature of 4° C. Each day, aliquots were taken from each portion and cultured overnight at 37° C. for viable count determination. […] Although the contaminants were not formally identified, it was postulated that they included at least Lactobacilli sp., that being a cell type often present in milk.

Test [11] has as its system E. coli. Nature of the test: Peroxynitrite scavenger and XO systems on bacterial growth curves in nutrient broth (Test 8(d)). The format is cell-based. As to conditions: 100 μM added at 1 hour; 21% oxygen saturation. As to the method:
E. coli were seeded into nutrient broth at 2.10^7 cell ml^−1 and incubated at 37° C. under atmospheric air conditions (that is, 21% oxygen saturation). Four separate test samples of volume 1 ml were prepared by addition at 1 hour of incubation as follows:
1 Peroxynitrite at concentration 100 μM.
2 Peroxynitrite at 100 μM and quercetin (peroxynitrite scavenger) at 100 μM.
3 Xanthine oxidase (53.2 μg) and xanthine at 100 μM.
4 Xanthine oxidase (53.2 μg) and NADH at 100 μM.
Corresponding controls were also prepared, and the growth curves generated over time determined by monitoring absorbance.

Test [12] has as its system S. enteritidis. The test can be described thus: Peroxynitrite effect on cell viability (Test 8(a)). The format is cell-based. As to conditions: Salmonella enterica. As for the experimental part:
Cells cultured as described above were diluted to suitable working concentrations (10^4-10^5 Cells Ml^−1) in sterile phosphate buffered saline (PBS). ONOO^− at a range of concentrations from […] to 0.01 μm was added as a bolus dose to cells and incubated at room temperature for ten minutes. Aliquots were taken from the cell cultures and plated on to nutrient agar and incubated in a warm room at 37° C. overnight. Viable cells formed colonies on the agar and were counted. The number of colonies formed was related to an untreated control and a graph of the results is shown in FIG. 1, which illustrates the effect of ONOO^− on cell viability.

The test system of test [13] is Staphylococcus aureus. The test can be described thus: Incubation of Staphylococcus aureus with SIN-1, growth. The format is cell-based. As to conditions: in dependence on the amount added. As to the method:
Cells cultured as described above were diluted to suitable working concentrations (10^4-10^5 Cells Ml^−1) in sterile phosphate buffered saline (PBS). […] Aliquots were taken from the cell cultures and plated on to nutrient agar and incubated in a warm room at 37° C. overnight. Viable cells formed colonies on the agar and were counted. The number of colonies formed was related to an untreated control and a graph of the results is shown in FIG. 1, which illustrates the effect of ONOO^− on cell viability.

Test [14] relates to superoxide. The test can be described thus: Measurable NO in the XO/hypoxanthine system with superoxide dismutase. The format is biochemical. As to conditions: added to the Xo/hypoxanthine system; oxygen 0 to 2%.

pIC50: −log10 of the molar value. Read-outs that look alike come from different tables or passages of the source.

Consider seven compounds from patent US20040120938A1, “Ingestible compositions comprising antibacterial agents” (The University of Bath, priority 1998, published 2004).

Regarding `c1ccc([I+]c2ccccc2)cc1` [DPI, Diphenyliodonium], the “inhibition of NO release of 7 days old Cow and Gate formula” value in [1] is given as “not inhibited”. In addition, in test [2], the “NO generation of fresh full fat milk with inhibitor” value is recorded as “no detectable NO generation” and the “inhibition of the increased NO release of milk gone off at 4° C.” value was “not inhibited”. In test [3], this compound gave an NO release of 0.00 mV/s.
In the case of `OO` [H2O2, hydrogen peroxide], the growth inhibition entry in test [4] (S. aureus, 50% growth reduction not observed at the concentration ranges used) is listed as “very limited”. Also, the pIC50 in test [5] (read-out: Half maximal concentration H2O2, Lactobacillus casei, bolus at beginning of logarithmic growth) is 3.52; in [6], 4.11; in test [7] it was 4.71.
Turning to `O=c1[nH]cnc2nc[nH]c12` [Hypoxanthine, hypoxanthine], the growth rate entry in test [4] (Staphylococcus, in the presence of 30 μg XO) was “reduced the growth rate”. Also, in test [5] (Lacticaseibacillus casei, 6375, Lactobacillus, at 30 μg XO, read-out: half maximal hypoxanthine dose), the pIC50 was 3.99. In test [8], the “total number of colonies formed (CFU ml^−1)” value is “reduce the total number of colonies formed”.
In the case of `O=c1[nH]c(=O)c2c[nH]nc2[nH]1` [Oxypurinol], the “effect on XO/hypoxanthine growth inhibition” value in test [5] (30 μg XO and 200 μM hypoxanthine, range of concentrations) was “reduce the effect of XO/hypoxanthine growth inhibition in a dose dependent manner”. Besides, in [5] (highest concentration, alone), the “growth rate of Lactobacillus, added alone” value is recorded as “no effect”. In test [1], the “inhibition of NO release of 7 days old Cow and Gate formula” value is reported as “not inhibited”. In test [2], the “NO generation of fresh full fat milk with inhibitor” value was “no detectable NO generation” and the “inhibition of the increased NO release of milk gone off at 4° C.” value is listed as “not inhibited”. Also, the NO release in test [3] is reported as 0.00 mV/s.
With `O=NOO` [Peroxynitrite], the “effect on cell viability (viable count, FIG. 1)” value in test [9] (range of concentrations, ten minutes) was “profound inhibitory effect”. Besides, the pIC50 was 5.85 in test [9] (bolus dose, ten minutes at room temperature in PBS, read-out: IC50 (concentration that reduces viability to 50% of control viable count)); 5.85 in test [9] (value matches Test 8(a) viability IC50, read-out: Half maximal concentration ONOO -); 3.54 in [4] (6751, Staphylococcus aureus, bolus at beginning of logarithmic growth, read-out: Half maximal concentration ONOO -); 4.26 in test [5] (Lacticaseibacillus casei, 6375, Lactobacillus casei, bolus at beginning of logarithmic growth, read-out: Half maximal concentration ONOO -); 5.69 in [12] (S. enteritidis, similar conditions, read-out: IC50 (concentration that reduces viability to 50% of control viable count)); 5.70 in test [12] (Salmonella enteritidis, value matches Test 8(a) viability IC50, read-out: Half maximal concentration ONOO -). Moreover, the “colony forming units (CFU) in milk compared to control” value is reported as “reduced the CFU significantly below control” in test [10] (daily bolus dose of 100 μM, p<=0.01, also below single dose p<=0.05) and “reduced the CFU significantly” in test [10] (single bolus dose of 100 μM on day one, p<=0.01). Also, in test [11], the “killing (growth curve)” value is given as “strong killing”.
With `N=c1c[n+](N2CCOCC2)[n-]o1` [SIN-1, 3-morpholinosydnonimine], the “growth of Staphylococcus aureus” value in test [13] is “reduced growth”.
As to superoxide dismutase, the “amount of measurable NO” value in [14] is on record as “increase the amount of measurable NO”.
